Assay results taken from patent US11077090B2, “Compounds and compositions and uses thereof” (Sunovion Pharmaceuticals Inc., priority 2016, dated 2021).
Read-outs that look alike come from different tables or passages of the source.

Tested on: compound-treated mice
Experiment: Neuropharmacological assay (SmartCube): behavioral activity signature and minimal effective dose
Type: in vivo
Settings: for minimal effective dose: Mus musculus, ip, MED = dose having 50% or more total activity; for AD: ADHD (probability of activity signature) / AG: analgesic (probability of activity signature) / AX: anxiolytic (probability of activity signature) / CE: cognitive enhancer (probability of activity signature) / DP: anti-depressant (probability of activity signature) / MS: mood stabilizer (probability of activity signature) / PS: anti-psychotic (probability of activity signature) / SD: sedative hypnotic (probability of activity signature) / UN: uncharacterized CNS activity (probability of activity signature): i.p. 15 min before test, most efficacious dose(s)
Summary of the method: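 Mice dosed i.p. 15 min before test, compound in N-methyl-2-pyrrolidone/PEG/propylene glycol, 3 doses; video-captured behavior matched to reference-drug signatures, giving per-class probabilities at most efficacious dose. MED from doses typically 0.3–30 mpk, defined as lowest dose with ≥50% total activity.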

[1] = read-out: Potency: minimal effective dose (MED)
[2] = read-out: Potency: minimal effective dose (MED), binned

`Cc1cc(Cl)c2c(c1)C(N)COC2.Cl` (stereo not drawn) [Example 49, 8-Chloro-6-methylisochroman-4-amine hydrochloride] was tested, and the minimal effective dose [1] was 3 to 10 mg/kg, the “AD: ADHD (probability of activity signature)” value (“AD: ADHD” for short) was “+ (LOQ ≤ + <5%)” and the “AG: analgesic (probability of activity signature)” value (“AG: analgesic” for short) was “++ (5% ≤ ++ <25%)”. For the same molecule, the “AX: anxiolytic (probability of activity signature)” value (from here on “AX: anxiolytic”) was “++ (5% ≤ ++ <25%)”, the “CE: cognitive enhancer (probability of activity signature)” value (shortened to “CE: cognitive enhancer”) was “++ (5% ≤ ++ <25%)” and the “DP: anti-depressant (probability of activity signature)” value (“DP: anti-depressant” below) was “++ (5% ≤ ++ <25%)”. For the same molecule, the “MS: mood stabilizer (probability of activity signature)” value (shortened to “MS: mood stabilizer”) was “+ (LOQ ≤ + <5%)”, the “PS: anti-psychotic (probability of activity signature)” value (“PS: anti-psychotic” for short) was “++ (5% ≤ ++ <25%)” and the “SD: sedative hypnotic (probability of activity signature)” value (shortened to “SD: sedative hypnotic”) was “++ (5% ≤ ++ <25%)”. For the same molecule, the “UN: uncharacterized CNS activity (probability of activity signature)” value (shortened to “UN: uncharacterized CNS activity”) was “++++ (50% ≤ ++++)”.

With `N[C@@H]1COCc2ccc(F)cc21` (single isomer, unassigned) [Example 113] the minimal effective dose [1] was 3 to 10 mg/kg, the “AD: ADHD” value was “+ (LOQ ≤ + <5%)” and the “AG: analgesic” value was “++ (5% ≤ ++ <25%)”. For the same molecule, the “AX: anxiolytic” value was “++ (5% ≤ ++ <25%)”, the “CE: cognitive enhancer” value was “++ (5% ≤ ++ <25%)” and the “DP: anti-depressant” value was “++ (5% ≤ ++ <25%)”. For the same molecule, the “MS: mood stabilizer” value was “+ (LOQ ≤ + <5%)”, the “PS: anti-psychotic” value was “++ (5% ≤ ++ <25%)” and the “SD: sedative hypnotic” value was “+ (LOQ ≤ + <5%)”. The “UN: uncharacterized CNS activity” value was “+++ (25% ≤ +++ <50%)”.

With `C[C@@H]1OC[C@@H](N)c2cc(Cl)ccc21.Cl` [Example 204] the minimal effective dose [2] was 3 to 10 mg/kg, the “AD: ADHD” value was “+ (LOQ ≤ + <5%)” and the “AG: analgesic” value was “+ (LOQ ≤ + <5%)”. For the same molecule, the “AX: anxiolytic” value was “++ (5% ≤ ++ <25%)”, the “CE: cognitive enhancer” value was “++ (5% ≤ ++ <25%)” and the “DP: anti-depressant” value was “+ (LOQ ≤ + <5%)”. For the same molecule, the “MS: mood stabilizer” value was “+ (LOQ ≤ + <5%)”, the “PS: anti-psychotic” value was “++ (5% ≤ ++ <25%)” and the “SD: sedative hypnotic” value was “++ (5% ≤ ++ <25%)”. The “UN: uncharacterized CNS activity” value was “++++ (50% ≤ ++++)”.

`C[C@H]1OCc2cccc(Cl)c2[C@@H]1N.Cl` [Example 81] was tested, and the minimal effective dose [1] was < 3 mg/kg, the “AD: ADHD” value was “+ (LOQ ≤ + <5%)” and the “AG: analgesic” value was “++ (5% ≤ ++ <25%)”. For the same molecule, the “AX: anxiolytic” value was “+++ (25% ≤ +++ <50%)”, the “CE: cognitive enhancer” value was “++ (5% ≤ ++ <25%)” and the “DP: anti-depressant” value was “++ (5% ≤ ++ <25%)”. For the same molecule, the “MS: mood stabilizer” value was “+ (LOQ ≤ + <5%)”, the “PS: anti-psychotic” value was “++ (5% ≤ ++ <25%)” and the “SD: sedative hypnotic” value was “++ (5% ≤ ++ <25%)”. The “UN: uncharacterized CNS activity” value was “+++ (25% ≤ +++ <50%)”.

In the case of `CN[C@H]1COCc2cccc(C)c21` (single isomer, unassigned) [Example 138], the minimal effective dose [1] is reported as 3 to 10 mg/kg, the “AD: ADHD” value is reported as “+ (LOQ ≤ + <5%)” and the “AG: analgesic” value is reported as “++ (5% ≤ ++ <25%)”. The “AX: anxiolytic” value was “++ (5% ≤ ++ <25%)”, the “CE: cognitive enhancer” value was “++ (5% ≤ ++ <25%)” and the “DP: anti-depressant” value was “++ (5% ≤ ++ <25%)”. For the same molecule, the “MS: mood stabilizer” value was “+ (LOQ ≤ + <5%)”, the “PS: anti-psychotic” value was “++ (5% ≤ ++ <25%)” and the “SD: sedative hypnotic” value was “++ (5% ≤ ++ <25%)”. The “UN: uncharacterized CNS activity” value was “+++ (25% ≤ +++ <50%)”.

In the case of `Cl.NC1COCc2ccc(Cl)c(Cl)c21` (stereo not drawn) [Example 44, 5,6-Dichloroisochroman-4-amine hydrochloride], the minimal effective dose [1] is reported as 3 to 10 mg/kg, the “AD: ADHD” value is reported as “+ (LOQ ≤ + <5%)” and the “AG: analgesic” value is reported as “++ (5% ≤ ++ <25%)”. The “AX: anxiolytic” value was “+++ (25% ≤ +++ <50%)”, the “CE: cognitive enhancer” value was “++ (5% ≤ ++ <25%)” and the “DP: anti-depressant” value was “++ (5% ≤ ++ <25%)”. The “MS: mood stabilizer” value was “+ (LOQ ≤ + <5%)”, the “PS: anti-psychotic” value was “++ (5% ≤ ++ <25%)” and the “SD: sedative hypnotic” value was “++ (5% ≤ ++ <25%)”. The “UN: uncharacterized CNS activity” value was “+++ (25% ≤ +++ <50%)”.

With `C[C@H]1OCc2ccc3c(c2[C@@H]1N)CCCO3.Cl` [Example 249] the minimal effective dose [2] was 3 to 10 mg/kg, the “AD: ADHD” value was “+ (LOQ ≤ + <5%)” and the “AG: analgesic” value was “++ (5% ≤ ++ <25%)”. For the same molecule, the “AX: anxiolytic” value was “++ (5% ≤ ++ <25%)”, the “CE: cognitive enhancer” value was “++ (5% ≤ ++ <25%)” and the “DP: anti-depressant” value was “+ (LOQ ≤ + <5%)”. The “MS: mood stabilizer” value was “+ (LOQ ≤ + <5%)”, the “PS: anti-psychotic” value was “++ (5% ≤ ++ <25%)” and the “SD: sedative hypnotic” value was “+ (LOQ ≤ + <5%)”. For the same molecule, the “UN: uncharacterized CNS activity” value was “+++ (25% ≤ +++ <50%)”.

`Cl.NC1COCc2cc(Cl)ccc21` (stereo not drawn) [Example 2] was tested, and the minimal effective dose [1] was 10 to 30 mg/kg, the “AD: ADHD” value was “+ (LOQ ≤ + <5%)” and the “AG: analgesic” value was “++ (5% ≤ ++ <25%)”. For the same molecule, the “AX: anxiolytic” value was “++ (5% ≤ ++ <25%)”, the “CE: cognitive enhancer” value was “+ (LOQ ≤ + <5%)” and the “DP: anti-depressant” value was “+ (LOQ ≤ + <5%)”. The “MS: mood stabilizer” value was “+ (LOQ ≤ + <5%)”, the “PS: anti-psychotic” value was “+ (LOQ ≤ + <5%)” and the “SD: sedative hypnotic” value was “+ (LOQ ≤ + <5%)”. For the same molecule, the “UN: uncharacterized CNS activity” value was “+++ (25% ≤ +++ <50%)”.

In the case of `N[C@H]1COCc2ccc(Cl)c(Cl)c21` (single isomer, unassigned) [Example 120], the minimal effective dose [1] is reported as 3 to 10 mg/kg, the “AD: ADHD” value is reported as “+ (LOQ ≤ + <5%)” and the “AG: analgesic” value is reported as “++ (5% ≤ ++ <25%)”. For the same molecule, the “AX: anxiolytic” value was “+++ (25% ≤ +++ <50%)”, the “CE: cognitive enhancer” value was “++ (5% ≤ ++ <25%)” and the “DP: anti-depressant” value was “++ (5% ≤ ++ <25%)”. For the same molecule, the “MS: mood stabilizer” value was “+ (LOQ ≤ + <5%)”, the “PS: anti-psychotic” value was “++ (5% ≤ ++ <25%)” and the “SD: sedative hypnotic” value was “++ (5% ≤ ++ <25%)”. The “UN: uncharacterized CNS activity” value was “++ (5% ≤ ++ <25%)”.

With `C[C@H]1OC[C@@H](N)c2cc(Cl)ccc21.Cl` [Example 203] the minimal effective dose [2] was 3 to 10 mg/kg, the “AD: ADHD” value was “+ (LOQ ≤ + <5%)” and the “AG: analgesic” value was “++ (5% ≤ ++ <25%)”. The “AX: anxiolytic” value was “++ (5% ≤ ++ <25%)”, the “CE: cognitive enhancer” value was “++ (5% ≤ ++ <25%)” and the “DP: anti-depressant” value was “++ (5% ≤ ++ <25%)”. For the same molecule, the “MS: mood stabilizer” value was “+ (LOQ ≤ + <5%)”, the “PS: anti-psychotic” value was “+++ (25% ≤ +++ <50%)” and the “SD: sedative hypnotic” value was “++ (5% ≤ ++ <25%)”. For the same molecule, the “UN: uncharacterized CNS activity” value was “++++ (50% ≤ ++++)”.

With `Cc1ccc2c(c1C)C(N)COC2.Cl` (stereo not drawn) [Example 42, 5,6-Dimethylisochroman-4-amine hydrochloride] the minimal effective dose [1] was < 3 mg/kg, the “AD: ADHD” value was “+ (LOQ ≤ + <5%)” and the “AG: analgesic” value was “+++ (25% ≤ +++ <50%)”. The “AX: anxiolytic” value was “++ (5% ≤ ++ <25%)”, the “CE: cognitive enhancer” value was “++ (5% ≤ ++ <25%)” and the “DP: anti-depressant” value was “++ (5% ≤ ++ <25%)”. The “MS: mood stabilizer” value was “+ (LOQ ≤ + <5%)”, the “PS: anti-psychotic” value was “+++ (25% ≤ +++ <50%)” and the “SD: sedative hypnotic” value was “++ (5% ≤ ++ <25%)”. For the same molecule, the “UN: uncharacterized CNS activity” value was “+++ (25% ≤ +++ <50%)”.

`CCc1ccc2c(c1)[C@H](N)[C@H](C)OC2.Cl` [Example 219] was tested, and the minimal effective dose [2] was 3 to 10 mg/kg, the “AD: ADHD” value was “+ (LOQ ≤ + <5%)” and the “AG: analgesic” value was “++ (5% ≤ ++ <25%)”. For the same molecule, the “AX: anxiolytic” value was “++ (5% ≤ ++ <25%)”, the “CE: cognitive enhancer” value was “++ (5% ≤ ++ <25%)” and the “DP: anti-depressant” value was “+ (LOQ ≤ + <5%)”. The “MS: mood stabilizer” value was “+ (LOQ ≤ + <5%)”, the “PS: anti-psychotic” value was “+ (LOQ ≤ + <5%)” and the “SD: sedative hypnotic” value was “+ (LOQ ≤ + <5%)”. For the same molecule, the “UN: uncharacterized CNS activity” value was “++++ (50% ≤ ++++)”.

With `COc1ccc2c(c1)[C@@H](N)COC2` (single isomer, unassigned) [Example 122] the minimal effective dose [1] was < 3 mg/kg, the “AD: ADHD” value was “+ (LOQ ≤ + <5%)” and the “AG: analgesic” value was “++ (5% ≤ ++ <25%)”. The “AX: anxiolytic” value was “+++ (25% ≤ +++ <50%)”, the “CE: cognitive enhancer” value was “+++ (25% ≤ +++ <50%)” and the “DP: anti-depressant” value was “++ (5% ≤ ++ <25%)”. The “MS: mood stabilizer” value was “+ (LOQ ≤ + <5%)”, the “PS: anti-psychotic” value was “++ (5% ≤ ++ <25%)” and the “SD: sedative hypnotic” value was “++ (5% ≤ ++ <25%)”. For the same molecule, the “UN: uncharacterized CNS activity” value was “+++ (25% ≤ +++ <50%)”.

`CC[C@H]1OCc2ccccc2[C@@H]1N` (single isomer, unassigned) [Example 193] was tested, and the minimal effective dose [2] was 3 to 10 mg/kg, the “AD: ADHD” value was “+ (LOQ ≤ + <5%)” and the “AG: analgesic” value was “++ (5% ≤ ++ <25%)”. For the same molecule, the “AX: anxiolytic” value was “++ (5% ≤ ++ <25%)”, the “CE: cognitive enhancer” value was “++ (5% ≤ ++ <25%)” and the “DP: anti-depressant” value was “+ (LOQ ≤ + <5%)”. The “MS: mood stabilizer” value was “+ (LOQ ≤ + <5%)”, the “PS: anti-psychotic” value was “++ (5% ≤ ++ <25%)” and the “SD: sedative hypnotic” value was “++ (5% ≤ ++ <25%)”. For the same molecule, the “UN: uncharacterized CNS activity” value was “++++ (50% ≤ ++++)”.

`CC[C@@H]1OCc2ccccc2[C@@H]1N(C)C.Cl` (single isomer, unassigned) [Example 260] was tested, and the minimal effective dose [2] was 3 to 10 mg/kg, the “AD: ADHD” value was “++ (5% ≤ ++ <25%)” and the “AG: analgesic” value was “+ (LOQ ≤ + <5%)”. For the same molecule, the “AX: anxiolytic” value was “+ (LOQ ≤ + <5%)”, the “CE: cognitive enhancer” value was “+ (LOQ ≤ + <5%)” and the “DP: anti-depressant” value was “+ (LOQ ≤ + <5%)”. For the same molecule, the “MS: mood stabilizer” value was “++ (5% ≤ ++ <25%)”, the “PS: anti-psychotic” value was “+ (LOQ ≤ + <5%)” and the “SD: sedative hypnotic” value was “++ (5% ≤ ++ <25%)”. For the same molecule, the “UN: uncharacterized CNS activity” value was “+ (LOQ ≤ + <5%)”.
